The nature of data set [1]: metabolic stability in rat plasma. As to conditions: read-out: Rat plasma t1/2. Format: in vitro ADME. An excerpt:
The metabolic stability of the peptides depends on the modifications to the peptides. […] As expected, peptides without N-terminal modification were rapidly metabolized (Table 2), presumably by aminopeptidases. […] Homogenization is likely to rupture cell membranes, releasing intracellular proteases that could metabolize these peptides, so that this system may not accurately reflect the metabolism that occurs in vivo. Endopeptidases capable of metabolizing Dyn A are also present on red blood cells, and can rapidly metabolize some Dyn A-(1-11) amide analogs, e.g. arodyn.

The nature of data set [2]: BBMEC permeability (in-vitro model of the blood-brain barrier). Particulars: for Papp: pH 7.4.
For data set [3] the following is noted: rat, brain homogenate, half life (t1/2) in rat brain homogenate.
For data set [4] the following is noted: rat, blood.
The test system of a further data set is kappa-opioid receptor. As to conditions: in vivo; cited from earlier work.
Data set [5] addresses T1, kappa-opioid receptor (KOR) (Mus musculus, UniProt P33534).
T1 construct: from tissue; host or cells: living C57B1/6J mice (central and peripheral KOR)
Particulars: animal models, after a single dose; cited from earlier work.

A further data set in a line: in vitro. Particulars: rat, brain homogenate, half life (t1/2) in rat brain homogenate.
The target of the next data set is KOR (Rattus norvegicus, UniProt P34975). Description: antagonist activity (adenylyl cyclase assay). Format: cell-based.
Data set [6] deals with kappa-opioid receptor (KOR) (Rattus norvegicus, UniProt P34975). As to the kind of experiment: binding affinity (Ki) at KOR.
The nature of data set [7]: observation of side effects in mice. Particulars: mouse, in vivo. An excerpt:
The ability of zyklophin to cross the BBB allows for any type of systemic administration, such as subcutaneous administration. Accordingly, zyklophin can be administered in a manner other than, but including, intercerebroventricular administration. Moreover, the ability of zyklophin to cross the BBB allows for a myriad of formulation opportunities, where the formulation can be prepared for a suitable mode or route of administration. As a consequence of having high selectivity for KOR and BBB permeability, zyklophin is a favorable drug candidate and as a lead drug for derivatizations and analoging. […] The mice data is discussed in more detail herein and in the incorporated references.

Read-outs that look alike come from different tables or passages of the source. Square brackets hold non-standard residues; d marks the D form. Peptide text beside a SMILES is read from it. Some results are limits rather than exact numbers.

The source of these data is patent US20090111741A1, “METHOD FOR TREATING AND/OR […] SEEKING BEHAVIOR” (priority 2007, published 2009).

In general, efflux ratio refers to the permeability from basolateral to apical divided by that in the opposite direction, in the common usage. As usually defined, the Papp is a coefficient for how fast a substance crosses the barrier. High values mean fast passage, low ones slow passage. What is called Kb is the affinity of an antagonist, worked out from how it opposes an agonist. Low values mean higher antagonist affinity, high ones lower antagonist affinity. The term Ki denotes the dissociation constant of the complex between target and ligand, obtained from inhibition or displacement. Read a high Ki as weaker binding.

T1 sequence (P33534 whole entry): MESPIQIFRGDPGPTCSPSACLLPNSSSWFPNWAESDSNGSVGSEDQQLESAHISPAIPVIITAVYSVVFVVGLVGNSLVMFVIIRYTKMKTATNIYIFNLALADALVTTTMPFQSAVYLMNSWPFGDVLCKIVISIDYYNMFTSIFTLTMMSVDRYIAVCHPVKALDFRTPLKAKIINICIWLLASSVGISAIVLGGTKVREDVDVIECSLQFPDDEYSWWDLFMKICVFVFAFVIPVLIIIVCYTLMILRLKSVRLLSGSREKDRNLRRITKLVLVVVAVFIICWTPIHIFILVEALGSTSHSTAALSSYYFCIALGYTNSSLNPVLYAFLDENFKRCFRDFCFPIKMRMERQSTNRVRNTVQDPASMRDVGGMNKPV
kappa-opioid receptor (KOR) (Rattus norvegicus, UniProt P34975), sequence (P34975 whole entry): as the sequence (P33534 whole entry) above, with D11E, S17A, S51P, A308V counted along it
KOR, sequence (P34975 whole entry): as the sequence (P33534 whole entry) above, with D11E, S17A, S51P, A308V counted along it

As for `CC[C@H](C)[C@H](NC(=O)[C@H](CCCNC(=N)N)NC(=O)[C@H](CCCNC(=N)N)NC(=O)[C@H](CC(C)C)NC(=O)[C@H](Cc1ccccc1)NC(=O)CNC(=O)CNC(=O)[C@H](Cc1ccc(O)cc1)NC(C)=O)C(=O)N[C@@H](CCCNC(=N)N)C(=O)N1CCC[C@H]1C(=O)N[C@@H](CCCCN)C(N)=O` [Ac-Dyn A-(1-11)NH2], the half-life in [1] worked out at 1.85 ± 0.283 h. For the same molecule, in data set [2], the efflux ratio was 2.4 and the Papp stood at 7.1 ± 2.3 ×10⁻⁶ cm/s.

`CC(=O)N[C@@H](Cc1ccccc1)C(=O)N[C@@H](Cc1ccccc1)C(=O)N[C@@H](Cc1ccccc1)C(=O)N[C@@H](CCCNC(=N)N)C(=O)N[C@@H](CC(C)C)C(=O)N[C@@H](CCCNC(=N)N)C(=O)N[C@@H](CCCNC(=N)N)C(=O)N[C@H](C)C(=O)N[C@@H](CCCNC(=N)N)C(=O)N1CCC[C@H]1C(=O)N[C@@H](CCCCN)C(N)=O` [Arodyn, Ac[Phe^1,2,3,Arg^4,D-Ala^8]Dyn A-(1-11) amide] (Ac-FFFRLRR[dA]RPK-NH2): the half-life in data set [1] is 1.73 ± 0.0667 h; in data set [3], 0.167 to 0.183 h; in data set [4], below 2 min. Further, the efflux ratio in data set [2] stood at 1.6. The molecule further registered a Papp in data set [2] of 7.6 ± 3 ×10⁻⁶ cm/s.

Take `CC[C@H](C)[C@H](NC(=O)[C@H](CCCN=C(N)N)NC(=O)[C@H](CCCN=C(N)N)NC(=O)[C@H](CC(C)C)NC(=O)[C@H](Cc1ccccc1)NC(=O)CNC(=O)CNC(=O)[C@@H](N)Cc1ccc(O)cc1)C(=O)N[C@@H](CCCN=C(N)N)C(=O)N1CCC[C@H]1C(=O)N[C@@H](CCCCN)C(N)=O` [Dyn A-(1-11)NH2, Dynorphin A-(1-11) amide]: the half-life in [1] is below 0.0333 h. In addition, in [2], the efflux ratio is 0.9 and the apparent permeability (Papp) stood at 3.8 ± 1.3 ×10⁻⁶ cm/s.

On to `CC(C)[C@@H](CN1CC[C@@](C)(c2cccc(O)c2)[C@@H](C)C1)NC(=O)[C@H]1Cc2ccc(O)cc2CN1` [JDTic, (3R)-7-hydroxy-N-{(1S)-1-{[(3R,4R)-4-(3-hydroxyphenyl)-3,4-dimethyl-1-piperidinyl]methyl}-2-methylpropyl}-1,2,3,4-tetrahydro-3-isoquinolinecarbox-amide], for which the “effect on stress-induced reinstatement of cocaine seeking (literature)” value with kappa-opioid receptor is “suppress stress-induced reinstatement of cocaine self-administration”. In addition, in [5], the “duration of action of KOR antagonism (literature)” value is given as “prolonged duration of action”.

Consider `Oc1ccc2c3c1O[C@H]1c4[nH]c5c(c4C[C@@]4(O)[C@@H](C2)N(CC2CC2)CC[C@]314)C[C@@]1(O)[C@H]2Cc3ccc(O)c4c3[C@@]1(CCN2CC1CC1)[C@H]5O4` [nor-binaltorphimine], for which, in data set [5], the “duration of action of KOR antagonism (literature)” value was “prolonged duration of action”.

For the molecule `N=C(N)NCCC[C@@H]1NC(=O)[C@H](CCCNC(=N)N)NC(=O)[C@H](NC(=O)[C@H](Cc2ccccc2)NC(=O)CNC(=O)CNC(=O)[C@H](Cc2ccc(O)cc2)NCc2ccccc2)CC(=O)NC[C@@H](C(=O)N[C@@H](CCCNC(=N)N)C(=O)N2CCC[C@H]2C(=O)N[C@@H](CCCCN)C(N)=O)NC1=O` [zyklophin, [N-benzylTyr^1,cyclo(D-Asp^5,Dap^8)]Dyn A-(1-11) amide], the half-life in the data set “in vitro” was determined as 1.17 h. This molecule also gave a Kb at KOR of 84 nM. For the same molecule, the Ki in [6] came out at 30 ± 2 nM. Also, the “side effects in mice” value in data set [7] was “no unwanted side affects have been observed”.
